Earlier results in patent US20100062042A1, “Methods, Systems and Devices for Administration of Chlorine Dioxide” (priority 2008, published 2010).

Legend:
[1] = test system: Pseudomonas aeruginosa (P. aeruginosa); conditions: see U.S. Application No. 61/150,685
[2] = test system: methicillin-resistant Staphylococcus aureus (MRSA); conditions: see U.S. Application No. 61/150,685
[3] = particularly in chilled water

[O][Cl+][O-] [chlorine dioxide, Chlorine dioxide]
Effectiveness against P. aeruginosa [1]: effective | Effectiveness against MRSA [2]: effective | Solubility in water [3]: high solubility in water
